Measured values: patent US20260070945A1, “MACROCYCLIC IMMUNOMODULATORS” (Bristol-Myers Squibb Company, priority 2022, published 2026)
pIC50: −log10 of the molar value. *1 amine or outer side, *2 acyl side, *3 side chain or, on linkers, in order; H or OH if unused. Where a SMILES comes first, the peptide text is derived from it. Bridges are numbered along the chain shown (N, C = ends). [ ]: non-standard residue; d: D form. The star is where a group is joined. ξ: configuration not given here. Phe(3-CF3) = N[C@@H](Cc1cccc(C(F)(F)F)c1)C(=O)O; Phe(4-COOH) = N[C@@H](Cc1ccc(C(=O)O)cc1)C(=O)O; Bip = N[C@@H](Cc1ccc(-c2ccccc2)cc1)C(=O)O; Phe(3-Me) = Cc1cccc(C[C@H](N)C(=O)O)c1; γGlu = O=C(O)[C@H](CCC(=O)[*:2])N[*:1]; NH(CH2)12COOH = O=C(O)CCCCCCCCCCCCN*; Val(3-OH) = CC(C)(O)[C@H](N)C(=O)O; aIle = CC[C@@H](C)[C@H](N)C(=O)O; 4Pal = N[C@@H](Cc1ccncc1)C(=O)O; Cha = N[C@@H](CC1CCCCC1)C(=O)O; Cit = NC(=O)NCCC[C@H](N)C(=O)O; Thr(3ξ) = CC(O)[C@H](N)C(=O)O; 12Ado = NCCCCCCCCCCCC(=O)O; Carboxymethyl = O=C(O)C*; NMeA = CN[C@@H](C)C(=O)O; Orn = NCCC[C@H](N)C(=O)O; dDap = NC[C@@H](N)C(=O)O; Aun = NCCCCCCCCCCC(=O)O; Dab = NCC[C@H](N)C(=O)O; AEEA = NCCOCCOCC(=O)O; Ac3c = NC1(C(=O)O)CC1; Aoc = NCCCCCCCC(=O)O

What follows are compounds tested against T1, PD-1/PD-L1 interaction (PE-labeled human PD-L1-Ig binding to Jurkat cell line over-expressing human PD-1) (Homo sapiens, UniProt Q15116) (assay: Jurkat-PD-1 Cell Binding High-Content Screening Assay (CBA)). Settings: Jurkat-hPD-1 cells, PE-labeled PD-L1-Ig 20 nM final; read-out: Jurkat HPD1 PDL1 IC50.
T1 construct: expressed in transfected cells; host or cells: Jurkat
T1 sequence (Q15116 25-288): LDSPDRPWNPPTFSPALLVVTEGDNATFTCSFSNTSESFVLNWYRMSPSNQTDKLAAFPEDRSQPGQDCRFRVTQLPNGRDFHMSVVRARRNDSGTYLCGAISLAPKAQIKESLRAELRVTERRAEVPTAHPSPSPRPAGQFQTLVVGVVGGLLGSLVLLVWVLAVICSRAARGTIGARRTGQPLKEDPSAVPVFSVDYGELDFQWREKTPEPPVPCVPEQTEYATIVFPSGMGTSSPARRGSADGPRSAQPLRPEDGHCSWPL
Summary of the method: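 In this imaging assay, cells in 10% FCS medium see compound for 2 h at 37 °C and then labeled ligand at 20 nM final for 1 h. Paraformaldehyde fixation, Hoechst 33342 staining and dPBS washes precede image capture.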

Compound | pIC50
CC(C)C[C@H]1NC(=O)[C@H](C)N(C)C(=O)[C@H](CCC(N)=O)NC(=O)[C@H](Cc2ccc(-c3ccccc3)cc2)NC(=O)[C@H](Cc2ccc(C(=O)O)cc2)NC(=O)[C@H](Cc2cccc(C(F)(F)F)c2)NC(=O)[C@H](CC(=O)O)NC(=O)[C@H](Cc2ccc(OCC(=O)O)cc2)NC(=O)[C@H](Cc2ccc(C(=O)O)cc2)NC(=O)CSC[C@@H](C(=O)N[C@@H](CCN)C(=O)NCCOCCOCC(=O)N[C@@H](CCC(=O)NCCOCCOCC(=O)NCCCCCCCCCCCCC(=O)O)C(=O)O)NC(=O)[C@H](CO)NC(=O)[C@H](C(C)(C)O)NC(=O)[C@H](CC2CCCCC2)NC(=O)[C@H](CCN)NC1=O [Example 1184] ({CH2CO}-[Phe(4-COOH)]Y(Carboxymethyl)D[Phe(3-CF3)][Phe(4-COOH)][Bip]Q[NMeA][dL][Dab][Cha][Val(3-OH)]SC[Dab][AEEA][γGlu][AEEA]-{NH(CH2)12COOH}; thioether N-14) | 7.36
CC(C)C[C@@H]1NC(=O)[C@H](Cc2c[nH]c3ccccc23)NC(=O)[C@H](CC(=O)O)NC(=O)[C@H](Cc2ccncc2)NC(=O)[C@H](Cc2ccc(OCC(=O)O)cc2)NC(=O)CSC[C@@H](C(=O)N[C@@H](CCCCN)C(=O)NCCOCCOCC(=O)NCCCCCCCCCCC(=O)O)NC(=O)[C@H](CO)NC(=O)[C@H](C(C)C)NC(=O)[C@H](CC2CCCCC2)NC(=O)[C@H](CCN)NC(=O)[C@@H](CC(C)C)NC(=O)[C@H](C)N(C)C(=O)[C@H](C(C)C)NC(=O)[C@H](Cc2ccc(-c3ccccc3)cc2)NC1=O [Example 1091] ({CH2CO}-Y(Carboxymethyl)[4Pal]DWL[Bip]V[NMeA][dL][Dab][Cha]VSCK[AEEA][Aun]-OH; thioether N-14) | 8.17
COC[C@@H]1NC(=O)CSC[C@@H](C(=O)N[C@@H](CCN)C(=O)NCCCCCCCCCCCCC(=O)O)NC(=O)[C@H](CO)NC(=O)[C@H](C(C)(C)O)NC(=O)[C@H](CC2CCCCC2)NC(=O)[C@H](CCN)NC(=O)[C@@H](CC(C)C)NC(=O)[C@H](C)N(C)C(=O)[C@H](CCCNC(N)=O)NC(=O)[C@H](Cc2ccc(-c3ccccc3)cc2)NC(=O)[C@H](Cc2ccc(C(=O)O)cc2)NC(=O)[C@H](Cc2cccc(C(F)(F)F)c2)NC(=O)[C@H](CC(=O)O)NC(=O)[C@H](Cc2ccc(OCC(=O)O)cc2)NC1=O [Example 1140] ({CH2CO}-S(Me)Y(Carboxymethyl)D[Phe(3-CF3)][Phe(4-COOH)][Bip][Cit][NMeA][dL][Dab][Cha][Val(3-OH)]SC[Dab]-{NH(CH2)12COOH}; thioether N-14) | 7.60
CC(C)C[C@@H]1NC(=O)[C@H](Cc2c[nH]c3ccccc23)NC(=O)[C@H](CC(=O)O)NC(=O)[C@H](Cc2ccc(OCC(=O)O)cc2)NC(=O)[C@H](Cc2ccc(OCC(=O)O)cc2)NC(=O)CSC[C@@H](C(=O)NC2(C(=O)NCCOCCOCC(=O)NCCCCCCCCCCC(=O)O)CC2)NC(=O)[C@H](CCCNC(=N)N)NC(=O)[C@H](C(C)C)NC(=O)[C@H](CC2CCCCC2)NC(=O)[C@H](CCN)NC(=O)[C@@H](CC(C)C)NC(=O)[C@H](C)N(C)C(=O)[C@H](C(C)C)NC(=O)[C@H](Cc2ccc(-c3ccccc3)cc2)NC1=O [Example 1247] ({CH2CO}-Y(Carboxymethyl)Y(Carboxymethyl)DWL[Bip]V[NMeA][dL][Dab][Cha]VRC[Ac3c][AEEA][Aun]-OH; thioether N-14) | 8.39
CC(C)C[C@@H]1NC(=O)[C@H](Cc2c[nH]c3ccccc23)NC(=O)[C@H](CC(=O)O)NC(=O)[C@H](Cc2ccc(C(=O)O)cc2)NC(=O)[C@H](Cc2ccc(OCC(=O)O)cc2)NC(=O)CSC[C@@H](C(=O)N[C@@H](CCCNC(=N)N)C(=O)NCCCCCCCCCCC(=O)O)NC(=O)[C@H](CCCNC(N)=O)NC(=O)[C@H](C(C)C)NC(=O)[C@H](CC2CCCCC2)NC(=O)[C@H](CCN)NC(=O)[C@@H](CC(C)C)NC(=O)[C@H](C)N(C)C(=O)[C@H](C(C)C)NC(=O)[C@H](Cc2ccc(-c3ccccc3)cc2)NC1=O [Example 1100] ({CH2CO}-Y(Carboxymethyl)[Phe(4-COOH)]DWL[Bip]V[NMeA][dL][Dab][Cha]V[Cit]CR[Aun]-OH; thioether N-14) | 7.70

Continued, values first:

pIC50 | Compound
7.07 | CC(C)C[C@H]1NC(=O)[C@H](C)N(C)C(=O)[C@H](Cc2ccc(OCC(=O)O)cc2)NC(=O)[C@H](Cc2ccc(-c3ccccc3)cc2)NC(=O)[C@H](Cc2ccc(OCC(=O)O)cc2)NC(=O)[C@H](Cc2c[nH]c3ccccc23)NC(=O)[C@H](CC(=O)O)NC(=O)[C@H](Cc2ccc(OCC(=O)O)cc2)NC(=O)[C@H]([C@@H](C)O)NC(=O)CSC[C@@H](C(=O)N[C@@H](CCN)C(=O)NCCOCCOCC(=O)NCCCCCCCCCCC(=O)O)NC(=O)[C@H]([C@@H](C)O)NC(=O)[C@H](C(C)C)NC(=O)[C@H](CC2CCCCC2)NC(=O)[C@H](CCC(=O)O)NC1=O [Example 1398] ({CH2CO}-TY(Carboxymethyl)DWY(Carboxymethyl)[Bip]Y(Carboxymethyl)[NMeA][dL]E[Cha]VTC[Dab][AEEA][Aun]-OH; thioether N-14)
7.37 | CC[C@@H](C)[C@@H]1NC(=O)[C@H](Cc2ccc(-c3ccccc3)cc2)NC(=O)[C@H](C(C)C)NC(=O)[C@H](Cc2c[nH]c3ccccc23)NC(=O)[C@H](CC(=O)O)NC(=O)[C@H](Cc2ccc(OCC(=O)O)cc2)NC(=O)[C@H](Cc2ccncc2)NC(=O)CSC[C@@H](C(=O)N[C@H](CN)C(=O)NCCOCCOCC(=O)N[C@@H](CCC(=O)NCCOCCOCC(=O)N[C@@H](CCC(=O)NCCOCCOCC(=O)N[C@@H](CCCN)C(=O)NCCCCCCCCCCC(=O)O)C(=O)O)C(=O)O)NC(=O)[C@H](CO)NC(=O)[C@H](C(C)C)NC(=O)[C@H](CC2CCCCC2)NC(=O)[C@H](CC(N)=O)NC(=O)[C@@H](CC(C)C)NC(=O)[C@H](C)N(C)C1=O [Example 2014] ({CH2CO}-[4Pal]Y(Carboxymethyl)DWV[Bip][aIle][NMeA][dL]N[Cha]VSC[dDap][AEEA][γGlu][AEEA][γGlu][AEEA][Orn][Aun]-OH; thioether N-14)
7.16 | CC(C)C[C@@H]1NC(=O)[C@H](Cc2c[nH]c3ccccc23)NC(=O)[C@H](CC(=O)O)NC(=O)[C@H](Cc2ccncc2)NC(=O)[C@H](Cc2ccc(OCC(=O)O)cc2)NC(=O)CSC[C@@H](C(=O)N[C@@H](CCCN)C(=O)NCCCCCCCCCCC(=O)O)NC(=O)[C@@H](CCC(N)=O)NC(=O)[C@H](C(C)C)NC(=O)[C@H](CC2CCCCC2)NC(=O)[C@H](CCN)NC(=O)[C@@H](CC(C)C)NC(=O)[C@H](C)N(C)C(=O)[C@H](C(C)C)NC(=O)[C@H](Cc2ccc(-c3ccccc3)cc2)NC1=O [Example 1344] ({CH2CO}-Y(Carboxymethyl)[4Pal]DWL[Bip]V[NMeA][dL][Dab][Cha]V[dQ]C[Orn][Aun]-OH; thioether N-14)
7.38 | Cc1cccc(C[C@@H]2NC(=O)[C@H](CC(=O)O)NC(=O)[C@H](Cc3ccc(C(=O)O)cc3)NC(=O)[C@H](Cc3ccc(OCC(=O)O)cc3)NC(=O)CSC[C@@H](C(=O)N[C@H](CC(N)=O)C(=O)NCCCCCCCCCCC(=O)O)NC(=O)[C@H](C(C)O)NC(=O)[C@H](C(C)C)NC(=O)[C@H](CC3CCCCC3)NC(=O)[C@H](CCN)NC(=O)[C@@H](CC(C)C)NC(=O)[C@H](C)N(C)C(=O)[C@H](C(C)C)NC(=O)[C@H](Cc3ccc(-c4ccccc4)cc3)NC(=O)[C@H](CC(C)C)NC2=O)c1 (stereo partly drawn) [Example 2326] ({CH2CO}-Y(Carboxymethyl)[Phe(4-COOH)]D[Phe(3-Me)]L[Bip]V[NMeA][dL][Dab][Cha]V[Thr(3ξ)]C[dN][Aun]-OH; thioether N-14)

Same assay, conditions: PE-labeled PD-L1-Ig 20 nM final, Jurkat-hPD-1 cells; read-out: Jurkat HPD1 PDL1 IC50

pIC50 | Compound
6.30 | CC(=O)NCC[C@H](NC(=O)[C@@H]1CSCC(=O)N[C@@H]([C@@H](C)O)C(=O)N[C@@H](Cc2ccc(OCC(=O)O)cc2)C(=O)N[C@@H](CC(=O)O)C(=O)N[C@@H](Cc2cccc(C)c2)C(=O)N[C@@H](Cc2ccc(OCC(=O)O)cc2)C(=O)N[C@@H](Cc2ccc(-c3ccccc3)cc2)C(=O)N[C@@H](Cc2ccc(OCC(=O)O)cc2)C(=O)N(C)[C@@H](C)C(=O)N[C@H](CC(C)C)C(=O)N[C@@H](CCNC(C)=O)C(=O)N[C@@H](CC2CCCCC2)C(=O)N[C@@H](C(C)C)C(=O)N[C@@H](CCC(=O)O)C(=O)N1)C(=O)NCCCCCCCC(=O)NCCCCCCCCCCCC(=O)O [Example 2676] ({CH2CO}-TY(Carboxymethyl)D[Phe(3-Me)]Y(Carboxymethyl)[Bip]Y(Carboxymethyl)[NMeA][dL][Dab](Ac)[Cha]VEC[Dab](Ac)[Aoc][12Ado]-OH; thioether N-14)
7.65 | Cc1cccc(C[C@@H]2NC(=O)[C@H](CC(=O)O)NC(=O)[C@H](Cc3ccc(OCC(=O)O)cc3)NC(=O)[C@H](C(C)O)NC(=O)CSC[C@@H](C(=O)N[C@@H](CCN)C(=O)NCCOCCOCC(=O)NCCCCCCCCCCC(=O)O)NC(=O)[C@H](C(C)O)NC(=O)[C@H](C(C)(C)O)NC(=O)[C@H](CC3CCCCC3)NC(=O)[C@H](CCN)NC(=O)[C@@H](CC(C)C)NC(=O)[C@H](C)N(C)C(=O)[C@H](Cc3ccc(OCC(=O)O)cc3)NC(=O)[C@H](Cc3ccc(-c4ccccc4)cc3)NC(=O)[C@H](Cc3ccc(OCC(=O)O)cc3)NC2=O)c1 (stereo partly drawn) [Example 2468] ({CH2CO}-[Thr(3ξ)]Y(Carboxymethyl)D[Phe(3-Me)]Y(Carboxymethyl)[Bip]Y(Carboxymethyl)[NMeA][dL][Dab][Cha][Val(3-OH)][Thr(3ξ)]C[Dab][AEEA][Aun]-OH; thioether N-14)
7.94 | Cc1cccc(C[C@@H]2NC(=O)[C@H](CC(=O)O)NC(=O)[C@H](Cc3ccc(OCC(=O)O)cc3)NC(=O)[C@H](C(C)O)NC(=O)CSC[C@@H](C(=O)N[C@@H](CCN)C(=O)NCCOCCOCC(=O)NCCCCCCCCCCC(=O)O)NC(=O)[C@H](CC(=O)O)NC(=O)[C@H](C(C)C)NC(=O)[C@H](CC3CCCCC3)NC(=O)[C@H](CCN)NC(=O)[C@@H](CC(C)C)NC(=O)[C@H](C)N(C)C(=O)[C@H](Cc3ccc(OCC(=O)O)cc3)NC(=O)[C@H](Cc3ccc(-c4ccccc4)cc3)NC(=O)[C@H](Cc3ccc(OCC(=O)O)cc3)NC2=O)c1 (stereo partly drawn) [Example 2558] ({CH2CO}-[Thr(3ξ)]Y(Carboxymethyl)D[Phe(3-Me)]Y(Carboxymethyl)[Bip]Y(Carboxymethyl)[NMeA][dL][Dab][Cha]VDC[Dab][AEEA][Aun]-OH; thioether N-14)
